# Legend:
# [1] = target: DGKζ (Homo sapiens (Human), UniProt Q13574); assay: Biochemical DGK IC50 assay, DGKζ ADP-Glo assay; details: 0.5 nM enzyme, 140 μM ATP, 80 μM DAG; read-out: DGKζ ADP-Glo assay IC50
# How it was run: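 Full-length human DGKζ, His-TEV tagged and purified from baculovirus-infected Sf9 cells, assayed by ADP-Glo with DAG/PS lipid micelle substrate prepared in 25 mM HEPES pH 7.0 with octyl glucoside. Final compound concentrations spanned 1.55–10000 nM or 23.3–150000 nM.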
# [2] = target: DGKα (Homo sapiens (Human), UniProt P23743); assay: Biochemical DGK IC50 assay, DGKα ADP-Glo assay; details: 7.5 nM enzyme, 140 μM ATP, 80 μM DAG
# How it was run: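 ADP-Glo read-out with full-length DGKα on DAG/PS lipid micelle substrate in 25 mM HEPES pH 7.0, 0.5 mM EDTA, 160 mM octyl β-D-glucopyranoside. Compound final concentrations spanned 1.55˜10000 nM or 23.3˜150000 nM.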
# Chain of DGKα (P23743 whole entry): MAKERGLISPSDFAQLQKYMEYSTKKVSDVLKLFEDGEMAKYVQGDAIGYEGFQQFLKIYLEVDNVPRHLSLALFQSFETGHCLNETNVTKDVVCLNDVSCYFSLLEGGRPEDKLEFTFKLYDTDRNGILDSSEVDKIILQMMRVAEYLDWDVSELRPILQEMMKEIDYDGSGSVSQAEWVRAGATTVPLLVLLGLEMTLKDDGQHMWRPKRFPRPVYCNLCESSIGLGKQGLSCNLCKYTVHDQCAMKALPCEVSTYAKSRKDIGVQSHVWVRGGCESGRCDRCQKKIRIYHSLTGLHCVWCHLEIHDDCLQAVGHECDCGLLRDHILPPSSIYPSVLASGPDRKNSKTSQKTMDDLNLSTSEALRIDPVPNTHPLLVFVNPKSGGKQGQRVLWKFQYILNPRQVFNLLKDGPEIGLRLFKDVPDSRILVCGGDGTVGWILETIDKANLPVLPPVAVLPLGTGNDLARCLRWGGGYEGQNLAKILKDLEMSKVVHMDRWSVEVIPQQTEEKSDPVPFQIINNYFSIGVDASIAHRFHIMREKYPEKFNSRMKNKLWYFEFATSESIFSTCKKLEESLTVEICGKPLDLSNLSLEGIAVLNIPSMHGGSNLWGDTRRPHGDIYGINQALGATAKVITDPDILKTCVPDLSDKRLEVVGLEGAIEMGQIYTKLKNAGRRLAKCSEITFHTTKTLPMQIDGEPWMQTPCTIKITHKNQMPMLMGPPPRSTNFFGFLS
# Chain of DGKζ (Q13574 other isoform, or with tags, fused parts or gaps): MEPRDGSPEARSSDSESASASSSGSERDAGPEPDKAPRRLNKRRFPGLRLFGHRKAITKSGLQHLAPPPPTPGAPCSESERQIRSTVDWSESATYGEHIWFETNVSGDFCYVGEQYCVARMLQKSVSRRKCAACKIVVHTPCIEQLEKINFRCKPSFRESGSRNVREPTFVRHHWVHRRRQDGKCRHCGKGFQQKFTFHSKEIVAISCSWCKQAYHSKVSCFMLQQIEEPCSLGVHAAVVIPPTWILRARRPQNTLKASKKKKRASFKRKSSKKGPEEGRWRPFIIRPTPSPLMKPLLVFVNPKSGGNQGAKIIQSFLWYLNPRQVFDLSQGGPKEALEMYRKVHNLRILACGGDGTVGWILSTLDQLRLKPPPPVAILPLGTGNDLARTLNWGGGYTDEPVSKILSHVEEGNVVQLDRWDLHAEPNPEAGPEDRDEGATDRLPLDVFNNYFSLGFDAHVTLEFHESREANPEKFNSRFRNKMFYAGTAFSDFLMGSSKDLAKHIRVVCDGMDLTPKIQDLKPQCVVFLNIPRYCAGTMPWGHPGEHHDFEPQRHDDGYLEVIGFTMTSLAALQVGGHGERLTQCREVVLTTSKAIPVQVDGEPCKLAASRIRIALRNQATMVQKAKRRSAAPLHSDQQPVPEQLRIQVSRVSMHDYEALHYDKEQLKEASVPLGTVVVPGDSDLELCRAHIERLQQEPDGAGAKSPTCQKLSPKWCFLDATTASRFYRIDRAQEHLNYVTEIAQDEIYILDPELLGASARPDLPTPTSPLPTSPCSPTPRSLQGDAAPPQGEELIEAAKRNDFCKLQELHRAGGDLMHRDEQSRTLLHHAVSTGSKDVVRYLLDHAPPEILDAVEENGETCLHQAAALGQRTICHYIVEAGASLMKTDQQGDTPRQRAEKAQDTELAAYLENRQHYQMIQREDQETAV
Structure (SMILES),IC50 [1],IC50 [2]
CC[C@H]1CN(C(C)c2ncc(C)cc2F)[C@H](CC)CN1c1cc(=O)n(C)c2cn(CC#N)nc12 (stereo partly shown) [Compound A359],299 nM,117 nM
CC[C@H]1CN(C(C)c2ccc(OC(F)(F)F)cn2)[C@H](CC)CN1c1cc(=O)n(C)c2cn(CC#N)nc12 (stereo partly shown) [Compound A361],554 nM,5.1 nM
CC[C@H]1CN(C(C)c2ccc(C)c(C)n2)[C@H](CC)CN1c1cc(=O)n(C)c2cn(CC#N)nc12 (stereo partly shown) [Compound A363],55 nM,166 nM
CC[C@H]1CN(C(C)c2ccc(C)c(OC)n2)[C@H](CC)CN1c1cc(=O)n(C)c2cn(CC#N)nc12 (stereo partly shown) [Compound A364],288 nM,2520 nM
CC[C@H]1CN(C(C)c2ccc(C)nn2)[C@H](CC)CN1c1cc(=O)n(C)c2cn(CC#N)nc12 (stereo partly shown) [Compound A365],4710 nM,794 nM
CC[C@H]1CN(C(C)c2ccc3cc(C)ncc3c2)[C@H](CC)CN1c1cc(=O)n(C)c2cn(CC#N)nc12 (stereo partly shown) [Compound A366],644 nM,366 nM
CC[C@H]1CN(C(C)c2cc3ccccc3c(C)n2)[C@H](CC)CN1c1cc(=O)n(C)c2cn(CC#N)nc12 (stereo partly shown) [Compound A367],3590 nM,19300 nM
CC[C@@H]1CN(c2cc(=O)n(C)c3cn(CC#N)nc23)[C@@H](CC)CN1C(=O)c1ccc(C2CC2)cc1 [Compound A369],1090 nM,294 nM
CC[C@@H]1CN(c2cc(=O)n(C)c3cn(CC#N)nc23)[C@@H](CC)CN1C(=O)c1ccc(C)cn1 [Compound A370],> 10000 nM,363 nM
CC[C@@H]1CN(c2cc(=O)n(C)c3cn(CC#N)nc23)[C@@H](CC)CN1C(=O)c1cc2cnccc2cn1 [Compound A371],> 10000 nM,717 nM
CC[C@@H]1CN(c2cc(=O)n(C)c3cn(CC#N)nc23)[C@@H](CC)CN1C(=O)c1cc2ccccc2cn1 [Compound A372],3450 nM,127 nM
CC[C@@H]1CN(c2cc(=O)n(C)c3cn(CC#N)nc23)[C@@H](CC)CN1C(=O)c1ccc2cccnc2c1 [Compound A373],3220 nM,21800 nM
CC[C@@H]1CN(c2cc(=O)n(C)c3cn(CC#N)nc23)[C@@H](CC)CN1C(=O)c1cnc2ccccc2n1 [Compound A374],51 nM,618 nM
"CC[C@H]1CN(C(C)c2ccc(OC3CCOC3)cc2)[C@H](CC)CN1c1cc(=O)n(C)c2cn(CC#N)nc12 (stereo partly drawn) [Compound A375, 2-(7-((2S,5R)-2,5-diethyl-4-(1-(4-((tetrahydrofuran-3-yl)oxy)phenyl)ethyl)piperazin-1-yl)-4-methyl-5-oxo-4,5-dihydro-2H-pyrazolo[4,3-b]pyridin-2-yl)acetonitrile]",944 nM,200 nM
CC[C@H]1CN(C(C)c2ccc(OCC3CCOC3)cc2)[C@H](CC)CN1c1cc(=O)n(C)c2cn(CC#N)nc12 (stereo partly shown) [Compound A376],602 nM,206 nM
CC[C@H]1CN(C(C)c2ccc(OC)cc2)[C@H](CC)CN1c1cc(=O)n(C)c2cn(CC#N)nc12 (stereo partly shown) [Compound A377],173 nM,94 nM
CC[C@H]1CN(C(C)c2ccc(OCC3COC3)cc2)[C@H](CC)CN1c1cc(=O)n(C)c2cn(CC#N)nc12 (stereo partly shown) [Compound A379],571 nM,294 nM
CC[C@H]1CN(C(C)c2ccc(OC3CCOCC3)cc2)[C@H](CC)CN1c1cc(=O)n(C)c2cn(CC#N)nc12 (stereo partly shown) [Compound A380],667 nM,161 nM
CC[C@H]1CN(C(C)c2ccc(C(=O)N3CCC(F)(F)CC3)cc2)[C@H](CC)CN1c1cc(=O)n(C)c2cn(CC#N)nc12 (stereo partly shown) [Compound A382],499 nM,79 nM
CC[C@H]1CN(C(C)c2ccc(C)c(C)c2)[C@H](CC)CN1c1cc(=O)n(C)c2cn(CC#N)nc12 (stereo partly shown) [Compound A384],99 nM,1750 nM
CC[C@H]1CN(C(C)c2cc(C)c(C)cn2)[C@H](CC)CN1c1cc(=O)n(C)c2cn(CC#N)nc12 (stereo partly shown) [Compound A385],498 nM,481 nM
CC[C@H]1CN(C(C)c2ccc(C(C)(C)C#N)cn2)[C@H](CC)CN1c1cc(=O)n(C)c2cn(CC#N)nc12 (stereo partly shown) [Compound A386],418 nM,689 nM
CC[C@H]1CN(C(C)c2ncc(OC(C)C)cc2F)[C@H](CC)CN1c1cc(=O)n(C)c2cn(CC#N)nc12 (stereo partly shown) [Compound A387],4890 nM,75000 nM
CC[C@H]1CN(C(C)c2cn3ccccc3n2)[C@H](CC)CN1c1cc(=O)n(C)c2cn(CC#N)nc12 (stereo partly shown) [Compound A388],1250 nM,1390 nM
CC[C@H]1CN(C(C)c2cc3ccccn3n2)[C@H](CC)CN1c1cc(=O)n(C)c2cn(CC#N)nc12 (stereo partly shown) [Compound A389],201 nM,43 nM
"CC#CCn1cc2c(n1)c(N1C[C@@H](C)N(C(C)c3ccc4c(c3)OC(C)(C)O4)C[C@@H]1C)cc(=O)n2C (stereo partly drawn) [Compound A390, 2-(but-2-yn-1-yl)-7-((2S,5R)-4-(1-(2,2-dimethylbenzo[d][1,3]dioxol-5-yl)ethyl)-2,5-dimethylpiperazin-1-yl)-4-methyl-2,4-dihydro-5H-pyrazolo[4,3-b]pyridin-5-one]",490 nM,4580 nM
CC#CCn1cc2c(n1)c(N1C[C@@H](C)N(C(C)c3ccc4c(c3)OC(F)(F)O4)C[C@@H]1C)cc(=O)n2C (stereo partly shown) [Compound A391],1650 nM,1180 nM
"CC#CCn1cc2c(n1)c(N1C[C@@H](CC)N(C(C)c3cc4ccccc4cn3)C[C@@H]1C)cc(=O)n2C (stereo partly drawn) [Compound A393, 2-(but-2-yn-1-yl)-7-((2S,5R)-5-ethyl-4-(1-(isoquinolin-3-yl)ethyl)-2-methylpiperazin-1-yl)-4-methyl-2,4-dihydro-5H-pyrazolo[4,3-b]pyridin-5-one]",795 nM,108 nM
CC#CCn1cc2c(n1)c(N1C[C@@H](CC)N(C(C)c3ccc4cccnc4c3)C[C@@H]1C)cc(=O)n2C (stereo partly shown) [Compound A395],272 nM,222 nM
